Data from patent publication EP0207497A2, “Quinolonecarboxylic acid derivative and process for its preparation” (KYORIN PHARMACEUTICAL CO., LTD., priority 1985, dated 1987).

Experiments:
Format in all cases: cell-based
[1] = system: Salmonella enteritidis IID 604; experiment: Antibacterial spectrum, MIC determination (method of Japan Society of Chemotherapy); settings: Salmonella enterica
[2] = system: B. thetaiotaomicron (0661); experiment: as above; settings: Bacteroides thetaiotaomicron
[3] = system: Yersinia enterocolitica IID 981; experiment: as above; settings: Yersinia enterocolitica, IID981
[4] = system: Veillonella parvula KYA 10790; experiment: as above; settings: KYA10790; Veillonella parvula KYA 10790, Gram -, 10^6 cells/ml
[5] = system: Morganella morganii IID 602; experiment: as above; settings: IID602; Morganella morganii IID 602, Gram -, 10^6 cells/ml
[6] = system: Staphylococcus aureus 209 P; experiment: as above; settings: Staphylococcus aureus, 209P
[7] = system: Alcaligenes faecalis 0114002; experiment: as above; settings: Alcaligenes faecalis 0114002, Gram -, 10^6 cells/ml
[8] = system: P. maltophilia GIFU 2491; experiment: as above; settings: Stenotrophomonas maltophilia, GIFU2491
[9] = system: P. cepacia GIFU 518; experiment: as above; settings: Burkholderia cepacia, GIFU518
[10] = system: C. ramosum; experiment: as above; settings: Thomasclavelia ramosa
[11] = system: B. distasonis 8503; experiment: as above; settings: Parabacteroides distasonis, 8503
[12] = system: Shigella sonnei IID 969; experiment: as above; settings: IID969; Shigella sonnei IID 969, Gram -, 10^6 cells/ml
Experimental: Minimal inhibitory concentrations (MICs) were determined in accordance with the method recommended by Japan Society of Chemotherapy.

[13] = system: Propionibacterium acens 11828; experiment: as above; settings: Propionibacterium, 11828
[14] = system: Peptococcus magnus KY 017; experiment: as above; settings: Finegoldia magna, KY017
[15] = system: Citrobacter freundii IID 976; experiment: as above; settings: Citrobacter freundii, IID976
[16] = system: Bacillus subtilis PCI 219; experiment: as above; settings: Bacillus subtilis, PCI219
[17] = system: B. fragilis 25285; experiment: as above; settings: Bacteroides fragilis, 25285
[18] = system: C. perfringens KYA 13123; experiment: microbe, parasite or virus in culture; settings: Clostridium perfringens, KYA13123
[19] = system: K. pneumoniae 1-220S; experiment: Antibacterial spectrum, MIC determination (method of Japan Society of Chemotherapy); settings: Klebsiella pneumoniae, 1220S
[20] = system: Acinetobacter anitratus IID 876; experiment: as above; settings: Acinetobacter calcoaceticus, IID876
[21] = system: Escherichia coli NIHJ JC-2; experiment: as above; settings: NIHJJC2; Escherichia coli NIHJ JC-2, Gram -, 10^6 cells/ml
[22] = system: S. aureus Smith; experiment: as above; settings: Staphylococcus aureus
[23] = system: Serratia marcescens IID 618; experiment: as above; settings: Serratia marcescens, IID618
[24] = system: B. fragilis 0558; experiment: as above; settings: Bacteroides fragilis, 0558
[25] = system: Bacteroides fragilis GM 7000; experiment: as above; settings: Bacteroides fragilis, GM7000
[26] = system: Fusobacterium mortiferum 4249; experiment: as above; settings: Fusobacterium mortiferum, 4249
[27] = system: Peptostreptococcus anaerobius KYA 27337; experiment: as above; settings: Peptostreptococcus anaerobius, KYA27337
[28] = system: B. vulgatus KYA 29327; experiment: as above; settings: Phocaeicola vulgatus, KYA29327
[29] = system: S. aureus IID 670 (Terajima); experiment: as above; settings: Staphylococcus aureus, IID670
[30] = system: Pst. micros UPI 5464-1; experiment: as above; settings: Parvimonas micra, UPI54641; Pst. micros UPI 5464-1, Gram +, 10^6 cells/ml
[31] = system: P. mirabilis IID 994; experiment: as above; settings: Proteus mirabilis, IID994
[32] = system: E. coli ATCC 10536; experiment: as above; settings: Escherichia coli, ATCC10536
[33] = system: S. epidermidis IID 866; experiment: as above; settings: Staphylococcus epidermidis, IID866
[34] = system: E. coli ML 4707; experiment: as above; settings: Escherichia coli, ML4707
[35] = system: Proteus vulgaris IFO 3167; experiment: as above; settings: Proteus vulgaris, IFO3167
[36] = system: Klebsiella pneumoniae KY(GN)6445; experiment: as above; settings: Klebsiella pneumoniae
[37] = system: Streptococcus pyogenes (S-8); experiment: as above; settings: Streptococcus pyogenes

Measured: MIC

O=C(O)c1cn(C2CC2)c2cc(N3CCNCC3)c(F)cc2c1=O [CPFX, ciprofloxacin, reference compound]
12.5 µg/mL: [10] | [13]
0.025 µg/mL: [1] | [3] | [5] | [19] | [23]
0.05 µg/mL: [16]
1.56 µg/mL: [26] | [27]
6.25 µg/mL: [11] | [25]
3.13 µg/mL: [17] | [24]
0.1 µg/mL: [20]
> 12.5 µg/mL: [2] | [28]
0.0125 µg/mL: [31] | [32] | [34] | [35] | [36]
0.0063 µg/mL: [12] | [15] | [21]
0.2 µg/mL: [4] | [6] | [29] | [30] | [33]
0.39 µg/mL: all other assays above
